Experimental data published in patent US10350210B2, “EGFR and ALK dual inhibitor” (PRECEDO PHARMACEUTICALS CO., LTD, priority 2015, dated 2019).

Assays:
NCI-H1975 = assay: Growth of cancer cells (Cell Titer-Glo viability), NCI-H1975; format: cell-based; details: Homo sapiens; NCI-H1975 (EGFR L858R/T790M double mutant), 72 hrs
Text: (§1) By testing the effect of the novel kinase inhibitors on the proliferation of cancer cells, the selectivity of the compounds of the present disclosure in inhibiting the proliferation of cancer cells was further assessed. In this example, human non-small cell lung cancer cell NCI-H1975 (expressing EGFR L858R/T790M double mutant gene), human skin squamous carcinoma cell A431 (expressing wild-type EGFR gene), non-small cell lung cancer NCI-H3255 (expressing EGFR L858R mutant gene), non-small cell lung cancer cell NCI-H3122 (expressing ALK gene), human non-small cell lung cancer cell A549 (expressing wild-type EGFR gene), human non-small cell lung cancer cell NCI-H2122 (expressing wild-type EGFR gene), human non-small cell lung cancer cell NCI-H460 (expressing wild-type EGFR gene), human non-small cell lung cancer cell PC-9 (expressing EGFR delE746_A750 mutant gene), Chinese hamster ovary cell CHO (Cricetulus griseus, hamster, Chinese, ovary), Chinese hamster lung cell CHL, human non-small cell lung cancer cell HCC827 (expressing mutant EGFR del19 gene), human lung adenocarcinoma cell HCC4006 (expressing mutant EGFR del19 gene), human non-small cell lung cancer cell NCI-H2228 (expressing wild-type ALK gene), and mouse primary B cell BaF3 were used, and the above cells were all purchased from ATCC (US). In addition, mouse BaF3-TEL-ALK (stably expressing ALK kinase), mouse BaF3-ALK-F1174L (stably expressing mutant ALK F1174L kinase), mouse BaF3-NPM-ALK (stably expressing ALK kinase), mouse BaF3-TEL-EGFR (stably expressing EGFR kinase), mouse BaF3-TEL-EGFR-T790M (stably expressing EGFR T790M mutant kinase), mouse BaF3-FL-EGFR-Del19 (stably expressing EGFR delE746_A750 mutant kinase), mouse BaF3-TEL-EGFR-L858R (stably expressing EGFR L858R mutant kinase), mouse BaF3-FL-EGFR-T790M-L858R (stably expressing EGFR T790M/L858R mutant kinase), mouse BaF3-TEL-INSR (stably expressing INSR protein), mouse BaF3-TEL-IGF1R (stably expressing IGF1R Protein), mouse BaF3-EML4-ALK (stably expressing EML4-ALK Protein), mouse BaF3-TEL-JAK3 (stably expressing JAK3 kinase protein), mouse BaF3-TEL-CSF1R (stably expressing CSF1R protein), and mouse BaF3-TEL-ALK-F1196M (stably expressing ALK F1196M mutant kinase) were also used in this example. The above cell lines were all established by our laboratory via the following process: kinase proteins or protein domain sequences of human ALK, ALK F1174L, EGFR, EGFR T790M, EGFR delE746_A750, EGFR L858, EGFR T790M/L858R, INSR, IGF1R, EML4-ALK, JAK3, CSF1R, ALK F1196M were amplified respectively by PCR, and were respectively inserted into MSCV-Puro vector (Clontech) with N-terminal TEL fragments and/or NPM fragments and/or TPR fragments; the resultants were stably transfected into mouse BaF3 cells by the means of retrovirus, and the IL-3 growth factors were removed, and eventually the ALK, ALK F1174L, EGFR, EGFR T790M, EGFR delE746_A750, EGFR L858, EGFR T790M/L858R, INSR, IGF1R, EML4-ALK, JAK3, CSF1R, ALK F1196M-transferred protein dependent cell lines were obtained.
(§2) The number of viable cells was determined quantitatively by a microplate reader using Cell Titer-Glo® (Promega, US) chemiluminescence cell viability assay kit.

PC-9 = assay: Growth of cancer cells (Cell Titer-Glo viability), PC-9; format: cell-based; details: Homo sapiens; PC-9 (EGFR delE746_A750 mutant), 72 hrs
Text: as §1, §2

A431 = assay: Growth of cancer cells (Cell Titer-Glo viability), A431; format: cell-based; details: Homo sapiens, A-431; A431 (wild-type EGFR), 72 hrs; read-out: GI50
Text: as §1, §2

CHO = assay: Cell growth (Cell Titer-Glo viability), CHO; format: cell-based, Chinese hamster; details: Cricetulus griseus; CHO Chinese hamster ovary cell, 72 hrs; read-out: GI50
Text: as §1, §2

CHL = assay: Cell growth (Cell Titer-Glo viability), CHL; format: cell-based, Chinese hamster; details: Cricetulus griseus; CHL Chinese hamster lung cell, 72 hrs; read-out: GI50
Text: as §1, §2

NCI-H2122 = assay: Growth of cancer cells (Cell Titer-Glo viability), NCI-H2122; format: cell-based; details: Homo sapiens; NCI-H2122 (wild-type EGFR), 72 hrs
Text: as §1, §2

A549 = assay: Growth of cancer cells (Cell Titer-Glo viability), A549; format: cell-based; details: Homo sapiens; A549 (wild-type EGFR), 72 hrs
Text: as §1, §2

HCC827 = assay: Growth of cancer cells (Cell Titer-Glo viability), HCC827; format: cell-based; details: Homo sapiens; HCC827 (mutant EGFR del19), 72 hrs
Text: as §1, §2

NCI-H3122 = assay: Growth of cancer cells (Cell Titer-Glo viability), NCI-H3122; format: cell-based; details: Homo sapiens; NCI-H3122 (expressing ALK gene), 72 hrs; read-out: GI50
Text: as §1, §2

NCI-H2228 = assay: Growth of cancer cells (Cell Titer-Glo viability), NCI-H2228; format: cell-based; details: Homo sapiens; NCI-H2228 (wild-type ALK), 72 hrs
Text: as §1, §2

BaF3 = assay: Cell growth (Cell Titer-Glo viability), BaF3; format: cell-based; details: BaF3 mouse primary B cell, 72 hrs
Text: as §1, §2

BaF3-TEL-ALK = assay: Cell growth (Cell Titer-Glo viability), BaF3-TEL-ALK; format: cell-based; details: Mus musculus; BaF3-TEL-ALK (stably expressing ALK kinase), 72 hrs
Text: as §1, §2

BaF3-ALK-F1174L = assay: Cell growth (Cell Titer-Glo viability), BaF3-ALK-F1174L; format: cell-based; details: Mus musculus; BaF3-ALK-F1174L (mutant ALK F1174L kinase), 72 hrs
Text: as §1, §2

BaF3-TEL-EGFR = assay: Cell growth (Cell Titer-Glo viability), BaF3-TEL-EGFR; format: cell-based; details: Mus musculus; BaF3-TEL-EGFR (stably expressing EGFR kinase), 72 hrs
Text: as §1, §2

BaF3-TEL-EGFR-T790M = assay: Cell growth (Cell Titer-Glo viability), BaF3-TEL-EGFR-T790M; format: cell-based; details: Mus musculus; BaF3-TEL-EGFR-T790M (EGFR T790M mutant kinase), 72 hrs
Text: as §1, §2

BaF3-FL-EGFR-Del19 = assay: Cell growth (Cell Titer-Glo viability), BaF3-FL-EGFR-Del19; format: cell-based; details: Mus musculus; BaF3-FL-EGFR-Del19 (EGFR delE746_A750 mutant kinase), 72 hrs
Text: as §1, §2

Row | SMILES | GI50 (NCI-H1975) | GI50 (PC-9) | GI50 (A431) | GI50 (CHO) | GI50 (CHL) | GI50 (NCI-H2122) | GI50 (A549) | GI50 (HCC827) | GI50 (NCI-H3122) | GI50 (NCI-H2228) | GI50 (BaF3) | GI50 (BaF3-TEL-ALK) | GI50 (BaF3-ALK-F1174L) | GI50 (BaF3-TEL-EGFR) | GI50 (BaF3-TEL-EGFR-T790M) | GI50 (BaF3-FL-EGFR-Del19)
1 | C=CC(=O)Nc1cc(Nc2ncc(Cl)c(Nc3ccccc3S(=O)(=O)C(C)C)n2)c(OC)cc1N1CCN(C)CC1 [Compound 2, N-(5-(5-chloro-4-(2-(isopropylsulfonyl)phenylamino)pyrimidin-2-ylamino)-4-methoxy-2-(4-methylpiperazin-1-yl)phenyl)acrylamide] | 0.043 µM | 0.005 µM | 0.25 µM | 0.5 µM | 2 µM | 3.6 µM | 0.87 µM | 0.01 µM | 0.033 µM | 0.25 µM | 1.6 µM | > 10 µM | 0.67 µM | 0.45 µM | 0.012 µM | < 0.0003 µM
2 | C=CC(=O)Nc1cc(Nc2ncc(Cl)c(Nc3ccccc3S(=O)(=O)C(C)C)n2)c(OC)cc1N1CCN(CCF)CC1 [Compound 9, N-(5-(5-chloro-4-(2-(isopropylsulfonyl)phenylamino)pyrimidin-2-ylamino)-2-(4-(2-fluoroethyl)piperazin-1-yl)-4-methoxyphenyl)acrylamide] | 0.059 µM | 0.043 µM | 0.32 µM | 1 µM | 4.3 µM | 0.68 µM | 1.3 µM | 0.035 µM | 0.042 µM | 0.26 µM | 2.9 µM | > 10 µM | 0.54 µM | 0.65 µM | 0.047 µM | < 0.0003 µM
3 | C=CC(=O)Nc1cc(Nc2ncc(Cl)c(Nc3ccccc3S(=O)(=O)C(C)C)n2)c(OC)cc1N1CCNCC1 [Compound 4, N-(5-(5-chloro-4-(2-(isopropylsulfonyl)phenylamino)pyrimidin-2-ylamino)-4-methoxy-2-(piperazin-1-yl)phenyl) acrylamide] | 0.024 µM | 0.045 µM | 0.43 µM | > 10 µM | 4.9 µM | 1.3 µM | 2.2 µM | 0.016 µM | 0.007 µM | 0.0074 µM | 2 µM | 0.008 µM | 1.5 µM | – | 0.062 µM | 0.015 µM
4 | C=CC(=O)Nc1cc(Nc2ncc(Cl)c(Nc3ccccc3S(=O)(=O)N(C)C)n2)c(OC)cc1N1CCN(C)CC1 [Compound 32, N-(5-(5-chloro-4-(2-(N,N-dimethylsulfamido)phenylamino)pyrimidin-2-ylamino)-4-methoxy-2-(4-methylpiperazin-1-yl)phenyl)acrylamide] | 0.031 µM | < 0.003 µM | 0.22 µM | 0.34 µM | 1.6 µM | 0.37 µM | 0.6 µM | < 0.003 µM | 0.011 µM | 0.49 µM | 1.1 µM | > 10 µM | 0.53 µM | 0.5 µM | 0.01 µM | < 0.0003 µM
